We go through 31 compounds from patent US20100041657A1, “HALOALKYLSULFONE SUBSTITUTED COMPOUNDS USEFUL FOR TREATING OBESITY AND DIABETES” (NOVO NORDICK A/S, priority 2005, published 2010).

Several values for one entry are separate records, joined by “and”; a condition that tells them apart may be missing. Equal values may be shown once.

As for `O=C(Nc1cccc(S(=O)(=O)C(F)(F)F)c1)c1ccc2ccccc2c1O` [Example 16, 1-Hydroxy-naphthalene-2-carboxylic acid (3-trifluoromethanesulfonyl-phenyl)-amide], the melting point (in general, the temperature of the solid-liquid transition) is 194 to 195 °C.

In turn, `O=C(Nc1cccc(SC(F)(F)F)c1)c1ccc2ccccc2c1O` [Example 17, 1-Hydroxy-naphthalene-2-carboxylic acid (3-trifluoromethylsulfanyl-phenyl)-amide] yielded a melting point of 154 °C.

In turn, `O=C(Nc1cccc(S(=O)(=O)C(F)(F)F)c1)c1c(O)ccc2ccccc12` [Example 18, 2-Hydroxy-naphthalene-1-carboxylic acid (3-trifluoromethanesulfonyl-phenyl)-amide] came in with a melting point of 179 to 180 °C.

As to `O=C(Nc1cccc(S(=O)(=O)C(F)(F)F)c1)c1cc2ccccc2cc1O` [Example 19, 3-Hydroxy-naphthalene-2-carboxylic acid (3-trifluoromethanesulfonyl-phenyl)-amide], the melting point was 212 to 213 °C.

Take `O=C(Nc1ccc(SC(F)(F)F)cc1)c1ccc2c(c1O)CCCC2` [Example 21, 1-Hydroxy-5,6,7,8-tetrahydro-naphthalene-2-carboxylic acid (4-trifluoromethylsulfanyl-phenyl)-amide]: the melting point was determined as 167 °C.

For the compound `O=C(Nc1ccc(SC(F)(F)F)cc1)c1cc(S(=O)(=O)c2ccccc2)c2ccccc2c1O` [Example 22, 4-Benzenesulfonyl-1-hydroxy-naphthalene-2-carboxylic acid (4-trifluoromethylsulfanyl-phenyl)-amide], the melting point lay within 271 to 272 °C.

In the case of `O=C(Nc1ccc(SC(F)(F)F)cc1)c1cc(Cl)c2ccccc2c1O` [Example 23, 4-Chloro-1-hydroxy-naphthalene-2-carboxylic acid (4-trifluoromethylsulfanyl-phenyl)amide], the melting point is 172 to 175 °C.

The compound `Cc1cc(C(=O)Nc2ccc(S(=O)(=O)C(F)(F)F)cc2Cl)c(O)c(C23CC4CC(CC(C4)C2)C3)c1` [Example 24, 3-Adamantan-1-yl-N-(2-chloro-4-trifluoromethanesulfonyl-phenyl)-2-hydroxy-5-methyl-benzamide] returned a melting point of 203 to 204 °C.

On to `Cc1cc(C(=O)Nc2ccc(S(=O)(=O)C(F)(F)F)cc2Cl)c(O)c(C(C)(C)C)c1` [Example 26, 3-tert-Butyl-N-(2-chloro-4-trifluoromethanesulfonyl-phenyl)-2-hydroxy-5-methylbenzamide], for which the melting point lay in the range of 209 to 212 °C.

The compound `O=C(Nc1ccc(SC(F)(F)F)c(Cl)c1)c1cc(Cl)c2ccccc2c1O` [Example 27, 4-Chloro-1-hydroxy-naphthalene-2-carboxylic acid (3-chloro-4-trifluoromethylsulfanyl-phenyl)-amide] came in with a melting point of 148 to 149 °C.

On to `O=C(Nc1ccc(S(=O)(=O)C(F)(F)F)cc1Cl)c1c(O)c(C23CC4CC(CC(C4)C2)C3)cc2c1CCCC2` [Example 29], for which the melting point lay within 205 to 206 °C.

Take `O=C(Nc1ccc(S(=O)(=O)C(F)(F)F)cc1Cl)c1c(O)c(C23CC4CC(CC(C4)C2)C3)cc2c1CCC2` [Example 30, 6-Adamantan-1-yl-5-hydroxy-indan-4-carboxylic acid (2-chloro-4-trifluoromethanesulfonyl-phenyl)-amide]: the melting point was in the range of 218 to 219 °C.

Take `O=C(Nc1ccc(S(=O)(=O)C(F)(F)F)cc1Cl)c1cc(Sc2ccc(F)cc2)c2ccccc2c1O` [Example 31, 4-(4-Fluoro-phenylsulfanyl)-1-hydroxy-naphthalene-2-carboxylic acid (2-chloro-4-trifluoromethanesulfonyl-phenyl)-amide]: the melting point was 195 to 198 °C.

Turning to `O=C(Nc1ccc(S(=O)(=O)C(F)(F)F)cc1Cl)c1cc(-c2ccc(F)cc2F)cc(C23CC4CC(CC(C4)C2)C3)c1O` [Example 32, 5-Adamantan-1-yl-2′,4′-difluoro-4-hydroxy-biphenyl-3-carboxylic acid (2-chloro-4-trifluoromethanesulfonyl-phenyl)-amide], the melting point was 177 to 178 °C.

Turning to `O=C(Nc1ccc(S(=O)(=O)C(F)(F)F)cc1Cl)c1cc([S+]([O-])c2ccc(F)cc2)c2ccccc2c1O` (stereo not shown) [Example 33, 4-(4-Fluoro-benzenesulfinyl)-1-hydroxy-naphthalene-2-carboxylic acid (2-chloro-4-trifluoromethanesulfonyl-phenyl)-amide], the melting point was in the range of 198 to 199.5 °C.

`CC1(c2cc(-c3ccc(F)cc3F)cc(C(=O)Nc3ccc(S(=O)(=O)C(F)(F)F)cc3Cl)c2O)CCCCC1` [Example 35, 2′,4′-Difluoro-4-hydroxy-5-(1-methyl-cyclohexyl)-biphenyl-3-carboxylic acid (2-chloro-4-trifluoromethanesulfonyl-phenyl)-amide]: the melting point fell in the range of 114 to 115 °C.

Turning to `CCc1ccc(C(C)(C)C)c(O)c1C(=O)Nc1ccc(S(=O)(=O)C(F)(F)F)cc1Cl` [Example 46, 3-tert-Butyl-N-(2-chloro-4-trifluoromethanesulfonyl-phenyl)-6-ethyl-2-hydroxybenzamide], the melting point is 126 to 127 °C.

`CCc1c(C(C)(C)C)cc(C(C)(C)C)c(O)c1C(=O)Nc1ccc(S(=O)(=O)C(F)(F)F)cc1Cl` [Example 47, 3,5-Di-tert-butyl-N-(2-chloro-4-trifluoromethanesulfonyl-phenyl)-2-ethyl-6-hydroxybenzamide]: the melting point fell in the range of 157 to 158 °C.

For the compound `CC(C)(C)c1cc2c(c(C(=O)Nc3ccc(S(=O)(=O)C(F)(F)F)cc3Cl)c1O)CCC2` [Example 48, 6-tert-Butyl-5-hydroxy-indan-4-carboxylic acid (2-chloro-4-trifluoromethanesulfonylphenyl)-amide], the melting point lay in the range of 172 to 173 °C.

In turn, `CC(C)(C)c1cc2c(c(C(=O)Nc3ccc(S(=O)(=O)C(F)(F)F)cc3Cl)c1O)CCCC2` [Example 50, 3-tert-Butyl-2-hydroxy-5,6,7,8-tetrahydro-naphthalene-1-carboxylic acid (2-chloro-4-trifluoromethanesulfonyl-phenyl)-amide] registered a melting point of 151 °C.

For the compound `Cc1c([S+](C)[O-])cc(C(C)(C)C)c(O)c1C(=O)Nc1ccc(S(=O)(=O)C(F)(F)F)cc1Cl` (stereo not shown) [Example 51, 3-tert-Butyl-N-(2-chloro-4-trifluoromethanesulfonyl-phenyl)-2-hydroxy-5-methanesulfinyl-6-methyl-benzamide], the melting point was 218 to 219 °C (dec.).

`COc1cc(C(=O)Nc2ccc(S(=O)(=O)C(F)(F)F)cc2Cl)c(O)c(C(C)(C)C)c1` [Example 53, 3-tert-Butyl-N-(2-chloro-4-trifluoromethanesulfonyl-phenyl)-2-hydroxy-5-methoxy-benzamide] registered a melting point of 126 to 127 °C.

`CC(C)c1ccc(C(C)(C)C)c(O)c1C(=O)Nc1ccc(S(=O)(=O)C(F)(F)F)cc1Cl` [Example 54, 3-tert-Butyl-N-(2-chloro-4-trifluoromethanesulfonyl-phenyl)-2-hydroxy-6-isopropyl-benzamide] returned a melting point of 116 to 116.5 °C.

In turn, `COc1ccc(C(C)(C)C)c(O)c1C(=O)Nc1ccc(S(=O)(=O)C(F)(F)F)cc1Cl` [Example 92, 3-tert-Butyl-N-(2-chloro-4-trifluoromethanesulfonyl-phenyl)-2-hydroxy-6-methoxy-benzamide] returned a melting point of 198 to 199 °C.

`COc1cc(C(C)(C)C)c(O)c(C(=O)Nc2ccc(S(=O)(=O)C(F)(F)F)cc2Cl)c1C` [Example 93, 3-tert-Butyl-N-(2-chloro-4-trifluoromethanesulfonyl-phenyl)-2-hydroxy-5-methoxy-6-methyl-benzamide] registered a melting point of 121 to 122 °C.

`CC(C)(C)c1cc2c(c(C(=O)Nc3ccc(S(=O)(=O)C(F)(F)F)cc3Cl)c1O)CCO2` [Example 94, 6-tert-Butyl-5-hydroxy-2,3-dihydro-benzofuran-4-carboxylic acid (2-chloro-4-trifluoromethanesulfonyl-phenyl)-amide]: the melting point was 201 to 202 °C.

`Cc1c(O)cc(C(C)(C)C)c(O)c1C(=O)Nc1ccc(S(=O)(=O)C(F)(F)F)cc1Cl` [Example 95, 3-tert-Butyl-N-(2-chloro-4-trifluoromethanesulfonyl-phenyl)-2,5-dihydroxy-6-methylbenzamide] returned a melting point of 163 to 166 °C.

Consider `COc1c(O)cc(C(C)(C)C)c(O)c1C(=O)Nc1ccc(S(=O)(=O)C(F)(F)F)cc1Cl` [Example 96, 3-tert-Butyl-N-(2-chloro-4-trifluoromethanesulfonyl-phenyl)-2,5-dihydroxy-6-methoxy-benzamide], for which the melting point is 171 to 175 °C.

In turn, `COc1cc(C(C)(C)C)c(O)c(C(=O)Nc2ccc(S(=O)(=O)C(F)(F)F)cc2Cl)c1O` [Example 97, 3-tert-Butyl-N-(2-chloro-4-trifluoromethanesulfonyl-phenyl)-2,6-dihydroxy-5-methoxy-benzamide] came in with a melting point of 170 to 171 °C.

With `CC(C)(C)c1cc(C(C)(C)C)c(O)c(C(=O)Nc2ccc(S(=O)(=O)C(F)(F)F)cc2Cl)c1O` [Example 100, 3,5-Di-tert-butyl-N-(2-chloro-4-trifluoromethanesulfonyl-phenyl)-2,6-dihydroxy-benzamide], the melting point is 149 to 150 °C.

As for `CSc1c(C)cc(O)c(C(=O)Nc2ccc(S(=O)(=O)C(F)(F)F)cc2Cl)c1C` [Example 163, N-(2-Chloro-4-trifluoromethanesulfonyl-phenyl)-6-hydroxy-2,4-dimethyl-3-methylsulfanyl-benzamide], the melting point is 205 to 206 °C and 201 to 202 °C.
